According to publication PMC3577862, “A Multiple Reaction Monitoring (MRM) Method to Detect Bcr-Abl Kinase Activity in CML Using a Peptide Biosensor” (PLoS ONE, 2013):

What was measured:
Bcr-Abl [1] = target: T1, Bcr-Abl (Homo sapiens, UniProt P00519+P11274); experiment: Cell-based biosensor assay, Western blot detection (4G10 antiphosphotyrosine / streptavidin); parameters: applied here to the disease-relevant, patient-derived CML model cell line K562; BCR N-terminal portion (fusion partner, human BCR P11274); endogenous in cells; host or cells: K562 (human CML cell line); settings: 25 µM peptide alone, + 10 µM imatinib (1 h pre-incubation) or + 1 µM pervanadate; 5, 30, 60 min; N = 3
T1 sequence (P11274+P00519 fused): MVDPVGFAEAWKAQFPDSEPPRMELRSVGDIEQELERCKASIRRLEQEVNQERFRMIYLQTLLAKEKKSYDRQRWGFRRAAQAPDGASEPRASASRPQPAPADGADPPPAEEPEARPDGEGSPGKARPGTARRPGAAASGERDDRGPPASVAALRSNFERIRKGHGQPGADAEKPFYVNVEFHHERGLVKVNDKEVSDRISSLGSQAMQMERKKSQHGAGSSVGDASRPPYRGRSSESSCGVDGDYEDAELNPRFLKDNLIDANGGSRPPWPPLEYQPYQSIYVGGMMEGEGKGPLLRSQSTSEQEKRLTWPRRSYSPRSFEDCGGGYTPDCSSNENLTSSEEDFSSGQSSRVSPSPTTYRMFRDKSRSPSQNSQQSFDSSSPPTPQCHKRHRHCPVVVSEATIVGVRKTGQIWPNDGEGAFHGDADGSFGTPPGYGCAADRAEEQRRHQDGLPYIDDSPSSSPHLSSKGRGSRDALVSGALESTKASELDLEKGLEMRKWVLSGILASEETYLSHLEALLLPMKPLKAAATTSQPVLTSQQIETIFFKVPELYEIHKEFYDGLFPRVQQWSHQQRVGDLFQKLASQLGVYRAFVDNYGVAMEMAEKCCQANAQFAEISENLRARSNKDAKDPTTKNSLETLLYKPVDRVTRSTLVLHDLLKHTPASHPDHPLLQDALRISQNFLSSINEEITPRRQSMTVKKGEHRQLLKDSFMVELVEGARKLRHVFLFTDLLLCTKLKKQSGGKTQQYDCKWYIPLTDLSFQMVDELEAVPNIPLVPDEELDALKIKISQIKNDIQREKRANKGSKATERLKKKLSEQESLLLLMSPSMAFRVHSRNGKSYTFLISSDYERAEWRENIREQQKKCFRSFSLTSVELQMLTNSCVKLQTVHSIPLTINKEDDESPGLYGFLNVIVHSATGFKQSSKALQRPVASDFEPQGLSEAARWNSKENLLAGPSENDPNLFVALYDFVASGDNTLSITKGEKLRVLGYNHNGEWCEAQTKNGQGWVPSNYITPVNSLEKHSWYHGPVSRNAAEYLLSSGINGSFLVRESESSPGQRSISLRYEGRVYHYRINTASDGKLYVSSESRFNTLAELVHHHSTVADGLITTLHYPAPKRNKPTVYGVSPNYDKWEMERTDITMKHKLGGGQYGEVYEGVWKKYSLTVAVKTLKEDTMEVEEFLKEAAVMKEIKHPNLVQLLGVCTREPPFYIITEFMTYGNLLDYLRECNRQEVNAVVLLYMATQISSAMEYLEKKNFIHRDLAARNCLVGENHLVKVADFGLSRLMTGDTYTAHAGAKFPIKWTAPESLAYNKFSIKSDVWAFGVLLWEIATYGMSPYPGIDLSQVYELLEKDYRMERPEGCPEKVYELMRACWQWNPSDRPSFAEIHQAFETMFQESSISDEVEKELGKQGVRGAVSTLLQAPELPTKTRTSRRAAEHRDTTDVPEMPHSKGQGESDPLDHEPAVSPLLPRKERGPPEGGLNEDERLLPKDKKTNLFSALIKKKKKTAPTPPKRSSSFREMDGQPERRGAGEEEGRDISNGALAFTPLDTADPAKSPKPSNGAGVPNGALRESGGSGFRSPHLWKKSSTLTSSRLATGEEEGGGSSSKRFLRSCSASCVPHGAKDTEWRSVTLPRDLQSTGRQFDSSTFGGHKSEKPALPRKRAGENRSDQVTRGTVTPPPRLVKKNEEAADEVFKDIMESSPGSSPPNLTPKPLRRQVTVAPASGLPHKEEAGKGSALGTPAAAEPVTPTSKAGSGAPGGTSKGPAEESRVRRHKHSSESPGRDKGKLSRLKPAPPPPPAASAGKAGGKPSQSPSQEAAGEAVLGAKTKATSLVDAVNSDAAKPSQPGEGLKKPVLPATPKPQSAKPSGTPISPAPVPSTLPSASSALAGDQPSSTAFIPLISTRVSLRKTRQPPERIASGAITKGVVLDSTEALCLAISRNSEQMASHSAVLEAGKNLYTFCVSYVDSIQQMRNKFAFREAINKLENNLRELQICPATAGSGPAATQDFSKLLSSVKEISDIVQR
Procedure: Samples of equal protein content (100 µg/lane) were diluted into Laemmli buffer and subjected to SDS-PAGE. Proteins were transferred to nitrocellulose membrane and analyzed by Western blotting. Membranes were split at the 15 kD mark and blocked in 3% milk in TBS-T overnight at 4°C, followed by blotting with the indicated antibodies in 3% milk/TBS-T. The bottom membrane was blotted with: DyLight-649 labeled Streptavidin (1∶1000, ThermoFisher Pierce) to detect total biosensor; 4G10 α-phosphotyrosine antibody to detect the phosphorylated biosensor. […] Signals of immunoblots were visualized using the Odyssey system (LiCOR Biosciences, Lincoln, NE), quantified using densitometry with Quantity One (Bio-Rad), and analyzed with GraphPad Prism software.
We based the peptide biosensor assay for Bcr-Abl/Abl kinase activity on our previously reported methodology, [17], [18] applied here to the disease-relevant, patient-derived CML model cell line K562. […] Lysates were processed as described in the Experimental Procedures, separated by SDS-PAGE and analyzed by Western blot using a two-color LiCOR scanner for quantitative detection of IR-dye labeled secondary antibodies and streptavidin (to measure total peptide signal via the biotinylated residue).

Bcr-Abl [2] = target: T1, Bcr-Abl; experiment: Cell-based biosensor assay, MRM (LC-MS/MS) detection of biosensor phosphorylation; settings: for phosphorylated peptide detected by MRM (in words): biosensor 5 min, alone or with imatinib or pervanadate; for phosphorylated peptide detected by MRM (in words) / phosphopeptide, 580-480 transition / unphosphorylated peptide, 540-604 transition / phosphopeptide, 580-604 transition / unphosphorylated peptide, 540-767 transition: 1 µg lysate; for phosphopeptide, 580-480 transition / unphosphorylated peptide, 540-604 transition / phosphopeptide, 580-604 transition / unphosphorylated peptide, 540-767 transition / %phospho: K562, 5 min; for phosphopeptide, 580-604 transition / unphosphorylated peptide, 540-767 transition: transition not chosen for quantitation; for %phospho: from fmol of 580-480 and 540-604
[3] = system: chronic myelogenous leukemia (CML) patients; settings: CML patients on imatinib; cited from earlier work
From the text: [1] […] Approximately 90% of CML patients achieve initial remission with ...

[4] = biological replicate 1, P, P+G, P+V treatments
[5] = biological replicate 2, P, P+G, P+V treatments
[6] = biological replicate 3, P, P+G, P+V treatments

Procedure for K562 cells: Biosensor peptide from samples generated as described above (in the Cell-based biosensor assay section) was captured using streptavidin-coated MagneSpheres (Promega Corporation, Madison, WI). The beads (20 µl) were prepared by washing with 0.1% Octyl-β-glucoside/PBS (3×150 µl). K562 cell lysates (200 µg total protein) were incubated with the beads on a shaker (600 rpm, 60 min). Beads were captured using a MagnaBot 96-well magnetic capture device (Promega) and washed with 0.1% Octyl-β-glucoside/PBS (3×150 µl) and deionized water (3×150 µl). Peptide was eluted using 15 µL sample buffer (ACN/H2O/TFA, 50%/50%/0.1%). 0.5 µL from each sample was co-spotted with α-cyano-4-hydroxycinnamic acid (10% w/v) containing ammonium dihydrogen phosphate (5 mg/ml), [22] dried and analyzed on a 4800 MALDI-TOF/TOF Analyzer (ABSciex). Selected ions were analyzed by MS/MS (specifying the parent ion mass for selection and CID) and sequenced de novo.
Peptide in lysates was enriched using streptavidin-coated magnetic nanoparticles through the peptide’s biotinylated reporter segment.

pervanadate
phosphorylation of the biosensor peptide in K562 cells (Western blot, 4G10) (Bcr-Abl [1]): stabilized | Unphospho (fmol), Peptide+pervanadate (Bcr-Abl [2]; K562 cells, 25 µM peptide + 1 µM pervanadate, 5 min, 540→604, per µg of digested lysate, mean ±SD of three replicates): 14 ± 0.6 fmol | Phospho (fmol), Peptide+pervanadate (Bcr-Abl [2]; K562 cells, 25 µM peptide + 1 µM pervanadate, 5 min, 580→480, per µg of digested lysate, mean ±SD of three replicates): 17 ± 12 fmol | % phospho, Peptide+pervanadate (Bcr-Abl [2]; K562 cells, 25 µM peptide + 1 µM pervanadate, 5 min, MRM, mean ±SD of three replicates): 52±16% | Total (fmol), Peptide+pervanadate (Bcr-Abl [2]; K562 cells, 25 µM peptide + 1 µM pervanadate, 5 min, unphosphorylated plus phosphorylated, per µg of digested lysate, mean ±SD of three replicates): 31 ± 13 fmol | phosphorylated peptide detected by MRM (in words) (Bcr-Abl [2]; K562 cells): higher levels | phosphopeptide, 580-480 transition (Bcr-Abl [2]; biological replicate 1, P = peptide alone, P+G = + imatinib, P+V = + pervanadate, corrected AUC x 1/slope): 31.582 fmol | unphosphorylated peptide, 540-604 transition (Bcr-Abl [2]; [4]): 14.1586 fmol | phosphopeptide, 580-604 transition (Bcr-Abl [2]; [4]): 42.5934 fmol | unphosphorylated peptide, 540-767 transition (Bcr-Abl [2]; [4]): 15.6618 fmol | %phospho (Bcr-Abl [2]; [4]): 69.0458% | phosphopeptide, 580-480 transition (Bcr-Abl [2]; [5]): 10.229 fmol | unphosphorylated peptide, 540-604 transition (Bcr-Abl [2]; [5]): 12.9195 fmol | phosphopeptide, 580-604 transition (Bcr-Abl [2]; [5]): 16.5395 fmol | unphosphorylated peptide, 540-767 transition (Bcr-Abl [2]; [5]): 12.6668 fmol | %phospho (Bcr-Abl [2]; [5]): 44.1886% | phosphopeptide, 580-480 transition (Bcr-Abl [2]; [6]): 10.3517 fmol | unphosphorylated peptide, 540-604 transition (Bcr-Abl [2]; [6]): 13.5084 fmol | phosphopeptide, 580-604 transition (Bcr-Abl [2]; [6]): 16.6663 fmol | unphosphorylated peptide, 540-767 transition (Bcr-Abl [2]; [6]): 11.085 fmol | %phospho (Bcr-Abl [2]; [6]): 43.385%

EAIYAAPFAKKK(γ-biotin)G-βNpa-GCGGAPTYSPPPPPGGRKKRRQRRRLL [Peptide]
site of degradation of the biosensor in cells (K562 cells): C-terminal degradation | phosphorylation of the biosensor peptide in K562 cells (Western blot, 4G10) (Bcr-Abl [1]): phosphorylated | Total (fmol), Peptide only (Bcr-Abl [2]; K562 cells, 25 µM peptide alone, 5 min, unphosphorylated plus phosphorylated, per µg of digested lysate, MRM, mean ±SD of three replicate biological experiments): 28 ± 5 fmol | phosphorylated peptide detected by MRM (in words) (Bcr-Abl [2]; K562 cells): both unphosphorylated and phosphorylated peptides were detected

Cc1ccc(NC(=O)c2ccc(CN3CCN(C)CC3)cc2)cc1Nc1nccc(-c2cccnc2)n1 [imatinib]
CML patients achieving initial remission with imatinib [3]: Approximately 90% | patients who never respond or develop recurrent and/or resistant disease (relapse within a few years; 1–5 years of starting treatment) [3]: approximately 30% | patients whose remission remains stable for a long period of time [3]: ~70%
